Results taken from patent US20240228547A1, “POLYPEPTIDE FOR RESISTING NOVEL CORONAVIRUS AND APPLICATION THEREOF” (INSTITUTE OF MICROBIOLOGY, CHINESE ACADEMY OF SCIENCES, priority 2021, published 2024).

Legend:
[1] = tested on: SARS-COV-2 original strain and its various variants; assay type: cell-based
[2] = tested on: pseudovirus of SARS-CoV-2 variant D614G; settings: for IC50: pseudovirus of variant D614G
[3] = tested on: pseudovirus of SARS-CoV-2 variant Alpha (B.1.1.7); settings: B.1.1.7 (Alpha) pseudovirus; for IC50: read-out: IC50, inhibitory effect on pseudovirus, Hela hACE2 cells
[4] = tested on: pseudovirus of SARS-CoV-2 variant Beta (B.1.351); settings: B.1.351 (Beta) pseudovirus; for IC50: read-out: IC50, inhibitory effect on pseudovirus, Hela hACE2 cells
[5] = tested on: pseudovirus of SARS-CoV-2 variant Gamma (P.1); settings: P.1 (Gamma) pseudovirus; for IC50: read-out: IC50, inhibitory effect on pseudovirus, Hela hACE2 cells
[6] = tested on: pseudovirus of SARS-CoV-2 variant Kappa (B.1.617.1); settings: for Increase multiple (fold increase in the inhibitory effect compared to the polypeptide P3) / IC50: B.1.617.1 (Kappa) pseudovirus; for IC50: read-out: IC50, inhibitory effect on pseudovirus, Hela hACE2 cells
[7] = tested on: pseudovirus of SARS-CoV-2 variant Delta (B.1.617.2); settings: B.1.617.2 (Delta) pseudovirus; for IC50: read-out: IC50, inhibitory effect on pseudovirus, Hela hACE2 cells

Compound | inhibitory effect compared with the polypeptide P3 (in words) [1] | Increase multiple (fold increase in the inhibitory effect compared to the polypeptide P3) [2] | IC50 [2] | Increase multiple (fold increase in the inhibitory effect compared to the polypeptide P3) [3] | IC50 [3] | Increase multiple (fold increase in the inhibitory effect compared to the polypeptide P3) [4] | IC50 [4] | Increase multiple (fold increase in the inhibitory effect compared to the polypeptide P3) [5] | IC50 [5] | Increase multiple (fold increase in the inhibitory effect compared to the polypeptide P3) [6] | IC50 [6] | Increase multiple (fold increase in the inhibitory effect compared to the polypeptide P3) [7] | IC50 [7] | inhibitory effect on the Kappa variant strain compared with P3 (in words) ([6]; Kappa variant strain)
CC[C@H](C)[C@H](N)C(=O)N[C@@H](CO)C(=O)NCC(=O)N[C@H](C(=O)N[C@@H](CC(N)=O)C(=O)N[C@@H](C)C(=O)N[C@@H](CO)C(=O)N[C@H](C(=O)N[C@H](C(=O)N[C@@H](CC(N)=O)C(=O)N[C@H](C(=O)N[C@@H](CCCCN)C(=O)N[C@@H](CCC(=O)O)C(=O)N[C@@H](CCC(=O)O)C(=O)N[C@H](C(=O)N[C@@H](CC(=O)O)C(=O)N[C@@H](CCCNC(=N)N)C(=O)N[C@@H](CC(C)C)C(=O)N[C@@H](CC(N)=O)C(=O)N[C@@H](CCC(=O)O)C(=O)N[C@H](C(=O)N[C@@H](C)C(=O)N[C@@H](CCCCN)C(=O)N[C@@H](CC(N)=O)C(=O)N[C@@H](CC(C)C)C(=O)N[C@@H](CC(N)=O)C(=O)N[C@@H](CCC(=O)O)C(=O)N[C@@H](CO)C(=O)N[C@@H](CC(C)C)C(=O)N[C@H](C(=O)N[C@@H](CC(=O)O)C(=O)N[C@@H](CC(C)C)C(=O)N[C@@H](CCC(N)=O)C(=O)N[C@@H](CCC(=O)O)C(=O)N[C@@H](CC(C)C)C(=O)O)[C@@H](C)CC)C(C)C)[C@@H](C)CC)[C@@H](C)CC)C(C)C)C(C)C)[C@@H](C)CC [Polypeptide P3-4] | improved to varying degrees | 2.6 | 0.3 µM | 1.3 | 0.59 µM | 4.0 | 0.2 µM | 3.6 | 0.22 µM | 1.6 | 0.48 µM | 1.4 | 0.55 µM | –
CC[C@H](C)[C@H](NC(=O)CNC(=O)[C@H](CO)NC(=O)[C@@H](NC(=O)[C@H](CC(=O)O)NC(=O)CNC(=O)[C@H](Cc1ccccc1)NC(=O)[C@H](CCCCN)NC(=O)[C@@H](N)C(C)C)[C@@H](C)CC)C(=O)N[C@@H](CC(N)=O)C(=O)N[C@@H](C)C(=O)N[C@@H](CO)C(=O)N[C@H](C(=O)N[C@H](C(=O)N[C@@H](CC(N)=O)C(=O)N[C@H](C(=O)N[C@@H](CCCCN)C(=O)N[C@@H](CCC(=O)O)C(=O)N[C@@H](CCC(=O)O)C(=O)N[C@H](C(=O)N[C@@H](CC(=O)O)C(=O)N[C@@H](CCCNC(=N)N)C(=O)N[C@@H](CC(C)C)C(=O)N[C@@H](Cc1ccc(O)cc1)C(=O)N[C@@H](CCC(=O)O)C(=O)N[C@H](C(=O)N[C@H](C(=O)N[C@@H](CCCCN)C(=O)N[C@@H](CC(N)=O)C(=O)N[C@@H](CC(C)C)C(=O)N[C@@H](CC(N)=O)C(=O)N[C@@H](CCC(=O)O)C(=O)N[C@@H](CO)C(=O)N[C@@H](CC(C)C)C(=O)N[C@H](C(=O)N[C@@H](CC(=O)O)C(=O)N[C@@H](CC(C)C)C(=O)N[C@@H](CCC(N)=O)C(=O)N[C@@H](CCC(=O)O)C(=O)N[C@@H](CC(C)C)C(=O)O)[C@@H](C)CC)C(C)C)C(C)C)[C@@H](C)CC)[C@@H](C)CC)C(C)C)C(C)C [Polypeptide P3-3] | most obviously improved | 5.0 | 0.16 µM | 2.1 | 0.37 µM | 7.5 | 0.1 µM | 7.2 | 0.11 µM | 1.8 | 0.43 µM | 2.4 | 0.32 µM | –
CC[C@H](C)[C@H](N)C(=O)N[C@@H](CO)C(=O)NCC(=O)N[C@H](C(=O)N[C@@H](CC(N)=O)C(=O)N[C@@H](C)C(=O)N[C@@H](CO)C(=O)N[C@H](C(=O)N[C@H](C(=O)N[C@@H](CC(N)=O)C(=O)N[C@H](C(=O)N[C@@H](CCC(N)=O)C(=O)N[C@@H](CCCCN)C(=O)N[C@@H](CCC(=O)O)C(=O)N[C@H](C(=O)N[C@@H](CC(=O)O)C(=O)N[C@@H](CCCNC(=N)N)C(=O)N[C@@H](CC(C)C)C(=O)N[C@@H](CC(N)=O)C(=O)N[C@@H](CCC(=O)O)C(=O)N[C@H](C(=O)N[C@@H](C)C(=O)N[C@@H](CCCCN)C(=O)N[C@@H](CCC(=O)O)C(=O)N[C@@H](CC(C)C)C(=O)N[C@@H](CC(N)=O)C(=O)N[C@@H](CCC(=O)O)C(=O)N[C@@H](CO)C(=O)N[C@@H](CC(C)C)C(=O)N[C@H](C(=O)N[C@@H](CC(=O)O)C(=O)N[C@@H](CC(C)C)C(=O)N[C@@H](CCC(N)=O)C(=O)N[C@@H](CCC(=O)O)C(=O)N[C@@H](CC(C)C)C(=O)O)[C@@H](C)CC)C(C)C)[C@@H](C)CC)[C@@H](C)CC)C(C)C)C(C)C)[C@@H](C)CC [Polypeptide P3-5] | decreased slightly | 0.5 | 1.47 µM | 0.5 | 1.43 µM | 0.6 | 1.24 µM | 1.3 | 0.63 µM | 0.7 | 1.06 µM | 0.4 | 1.82 µM | slightly higher than that of P3
